According to PMC11320734 (ACS Pharmacology & Translational Science, 2024):
≈ marks a conversion by molar mass, not a printed value. Read-outs that look alike come from different tables or passages of the source.

How the values were obtained:
[1] = Thermodynamic solubility assay (THESA), also in FaSSIF and FeSSIF; type: physicochemical; conditions: thermodynamic from solid
Description: (§1) For the determination of the octanol/water distribution coefficient (logD), the carrier-mediated distribution system (CAMDIS)-assay was used as described elsewhere.[38] Kinetic and thermodynamic solubilities were assessed using the lyophilization solubility assay (LYSA) and thermodynamic solubility assay (THESA), respectively. For the LYSA, the solubility of RNB- 61 in phosphate buffer at pH 6.5 from an evaporated 10 mM DMSO compound stock solution was measured. Two aliquots of the test compounds were dried and dissolved in phosphate buffer at pH 6.5. The solutions were then filtered and diluted (3 different dilution levels for each compound) before high throughput mass spectrometry (MS) analysis was performed in an Agilent RapidFire system. Each test compound was quantified using a 6-point calibration curve prepared with the same DMSO starting solution. For THESA, RNB-61 (8.6 mg per mL solvent/vehicle) was stirred in HPLC vials (9 × 12 × 32 mm, Waters) at 350 rpm for 15 h. The presence of solid particles was determined by microscopic analysis of 10 μL samples. If the active pharmacological ingredient (API) was completely dissolved, more solid API was added before stirring for another 15 h. This step was repeated for up to 96 h or until residual solid particles could be detected. Samples (0.5 mL) were transferred to Eppendorf Ultrafree filter tubes (Filter: PVDF 0.22 μm) and centrifuged at 14,500 rpm for 10 min. The filtrates were diluted in ethanol and analyzed by ultra-performance liquid chromatography (UPLC). Measurements were repeated in 0.05 M aqueous phosphate buffer and in fasted (FaSSIF) and fed (FeSSIF) simulated gastrointestinal fluids.

80 additional receptors = experiment: CEREP off-target binding screen
[2] = Single-dose pharmacokinetics in male Wistar rats; type: in vivo; conditions: rat, plasma
Description: To characterize the pharmacokinetic behavior of RNB-61, studies in rodents were conducted at the in vivo facility of F. Hoffmann-La Roche Ltd. (Basel, Switzerland). The plasma-concentration time profile was studied in rodents after single-dose RNB-61 administration by oral gavage (p.o. microsuspension excipients 7.5% gelatin/0.62% NaCl) and intravenous bolus injection (i.v. solution, excipients NMP:NaCl (30:70)). Three groups of male Wistar rats (n = 2 per group) were administered RNB-61 either at 1 mg kg^–1 i.v., 3 mg kg^–1 p.o., or 26 mg kg^–1 p.o. Plasma samples were drawn at 0.083, 0.25, 0.5, 1, 2, 4, 8, and 24 postdose in the i.v. group and at 0.25, 0.5, 0.75, 1.5, 3, 5, 8, and 24 h postdose in the p.o. groups. The samples were analyzed for RNB-61 concentration by LC/MS-MS. For the LC/MS-MS analysis, and the samples were prepared by adding 100 uL to 400 uL ACN with ISTD (100 ng/mL Bosantan in ACN/MeOH 1/1), stirring, and centrifuging (4000 rpm, 65’). 100 uL of the supernatant were pipetted and diluted with 400 μL H2O at pH 3. The analytes were separated on a Restek C18 column (5 μm, 1.0 × 3 mm). The mobile phase consisted of water containing 0.1% HCOOH as solvent A and ACN containing 0.1% HCOOH as solvent B. The gradient curve starting with 5% B was changed to 90% B between 0.4 and 0.6 min and further increased to 95% B between 0.6 and 1.2 min. This was maintained until 1.4 min and then reduced and kept at 5% B between 1.45 and 2.0 min. The mass spectrometer was operated in the positive mode. All LC-MS/MS was done using the Agilent RapidFire Analyzer software (version 4.3). The pharmacokinetic parameters were estimated by noncompartmental analysis in the Certara WinNonlin software (version 5.3). A similar study design was run in mice with three groups receiving 2 mg kg^–1 i.v., 4 mg kg^–1 p.o., or 26 mg kg^–1 p.o., and plasma sampling occurring in a composite profile (n = 2 for each time point) up to 7 or 24 h postdose. Male C57/BL6 mice (n = 5 per group) were used to study the influence of P-gp efflux on brain penetration. Two groups of mice were administered RNB-61 by i.v. bolus injection at 1 mg kg^–1 (2 groups). In order to block P-gp activity, an i.v. bolus of 5 mg kg^–1 tariquidar[46] was injected into one group 30 min prior to RNB-61. Plasma was collected at 0.083, 0.25, 0.5, 2, 4, and 7 h postdose in a composite profile. Brain, CSF, and vitreous body were collected at terminal time points 0.5, 2, 4, and 7 h postdose.

[3] = Lyophilization solubility assay (LYSA); type: physicochemical; conditions: aqueous buffer, thermodynamic from solid; kinetic, phosphate buffer pH 6.5
Description: as §1, with “Samples (0.5 mL) were transferred to Eppendorf Ultrafree filter tubes (Filter: PVDF 0.22 μm) and centrifuged at 14,500 rpm for 10 min.” left out, “Measurements were repeated in 0.05 M aqueous phosphate buffer and in fasted (FaSSIF) and fed (FeSSIF) simulated gastrointestinal fluids.” left out

In the case of Cn1c(C(C)(C)C)cc(=NC(=O)c2cc(C(F)(F)F)ccc2OCC(C)(C)O)n1CC1CCC1 [RNB-61], the solubility at 15 h ([1]; aqueous buffer, read-out: aqueous solubility THESA) is reported as 316 µg/mL (≈ 656 µM), the solubility at 15 h ([1]; fassif, fasted simulated gastrointestinal fluid, read-out: solubility FaSSIF) is reported as 630 µg/mL (≈ 1310 µM) and the solubility at 15 h ([1]; fessif, fed simulated gastrointestinal fluid, read-out: solubility FeSSIF) is reported as 1370 µg/mL (≈ 2850 µM). The “binding to 80 additional receptors (significant = ≥50% of probe displacement)” value (80 additional receptors; 10 μM, most receptors, exception Na+ channel site 2) was “no significant binding”, the “interaction with 80 additional receptor targets (significant = >50% inhibition)” value (80 additional receptors; up to 1 μM) was “no significant interaction” and the AUC(0-inf) ([2]; iv, 1 mg kg^–1 i.v.) was 5170 ng·h/mL. It also gave a Tmax ([2]; iv, 1 mg kg^–1 i.v.) of 0.083 h, a clearance ([2]; iv, 1 mg kg^–1 i.v.) of 3.5 mL/min/kg and a half-life ([2]; iv, 1 mg kg^–1 i.v.) of 6 h. For the same molecule, the Cmax ([2]; iv, 1 mg kg^–1 i.v., read-out: Cmax) was 619 ng/mL, the Cmax ([2]; iv, 1 mg kg^–1 i.v., read-out: Cmax (molar)) was 1280 nM and the Vd ([2]; iv, 1 mg kg^–1 i.v., read-out: Vss) was 1.6 L/kg. For the same molecule, the AUC(0-inf) ([2]; po, 3 mg kg^–1 p.o.) was 7410 ng·h/mL, the Tmax ([2]; po, 3 mg kg^–1 p.o.) was 5.5 h and the bioavailability ([2]; po, 3 mg kg^–1 p.o.) was 48%. For the same molecule, the half-life ([2]; po, 3 mg kg^–1 p.o.) was 7.1 h, the Cmax ([2]; po, 3 mg kg^–1 p.o., read-out: Cmax) was 446 ng/mL and the Cmax ([2]; po, 3 mg kg^–1 p.o., read-out: Cmax (molar)) was 926 nM. It also gave an AUC(0-inf) ([2]; po, 26 mg kg^–1 p.o.) of 117000 ng·h/mL, a Tmax ([2]; po, 26 mg kg^–1 p.o.) of 3 h and a bioavailability ([2]; po, 26 mg kg^–1 p.o.) of 87%. The half-life ([2]; po, 26 mg kg^–1 p.o.) was 49 h, the Cmax ([2]; po, 26 mg kg^–1 p.o., read-out: Cmax) was 1710 ng/mL and the Cmax ([2]; po, 26 mg kg^–1 p.o., read-out: Cmax (molar)) was 3500 nM. For the same molecule, the solubility [3] was 194 µg/mL (≈ 403 µM).
